Laboratory results published in patent US20220315574A1, “Beta-Arrestin-Modulating Compounds and Methods of Using Same” (Duke University, priority 2019, published 2022).
Counter-ions that a name gives are not always drawn.

Legend:
[1] = system: β2V2R-βarr internalization; experiment: DiscoveRx PathHunter activated receptor endocytosis assay in U2OS cells; format: cell-based; details: series of compound concentrations, 30 min pretreatment, isoproterenol dose-response
Experimental: β-arrestin-mediated activated receptor internalization was measure using the DiscoveRx PathHunter activated receptor endocytosis assay according to the manufacturer's protocols (DiscoverRx, Fremont, Calif.). Briefly, an Enzyme Acceptor (EA)-tagged βarr and a ProLink tag localized to endosomes are stably expressed in U2OS cells. Untagged β2V2R is transiently expressed (4 ug of DNA). The next day, cells (25,000 cells per well) were then seeded in white 96-well clear-bottomed assay plates and incubated for 24 h before experiments. On the day of experiment, cells were first treated with compound or vehicle for 30 min, followed by a series concentrations of agonist (Iso) stimulation for 60 min at 37° C. Receptor internalization was detected as luminescence resulting from the complementation of β-galactosidase fragments (Enzyme Acceptor and ProLink) within endosomes. Luminescence signals were measured on a CLARIOstar microplate reader using the PathHunter Detection kit (DiscoveRx).

[2] = system: ERK1/2; experiment: Live cell ERK1/2 activation assay (HEK293 cells stably expressing β2AR); format: cell-based; details: for βarr1/2-dependent ERK activation through β2-adrenergic receptor: carvedilol stimulation after compound pretreatment
Experimental: To assess the effect(s) of βarr small-molecule modulators on receptor-stimulated β-arr dependent ERK1/2 activation, HEK293 cells stably expressing β2AR plates were starved for 6 hours in serum-free medium prior to stimulation (Wisler, J. W. et al. A unique mechanism of beta-blocker action: carvedilol stimulates beta-arrestin signaling. Proc Natl Acad Sci USA 104, 16657-16662, doi:10.1073/pnas.0707936104 (2007); Wang, J. et al. Galphai is required for carvedilol-induced beta1 adrenergic receptor beta-arrestin biased signaling. Nat Commun 8, 1706, doi:10.1038/s41467-017-01855-z (2017)). Cells were pretreated with βarr small-molecule modulators or vehicle, then incubated for 30 min at 37° C. After stimulation with appropriate receptor ligand (carvedilol or isoproterenol) for indicated time points, reactions were terminated by the addition of Laemmli sample buffer. The cell lysates were sonicated for 15 sec (2×) and clarified by centrifugation 14,000×g (4° C., 15 min). Proteins were resolved on an SDS-PAGE gel, transferred to nitrocellulose membranes, and immunoblotted using rabbit polyclonal anti-phospho-p44/42 MAPK (ERK1/2) antibody (1:2000; Cell Signaling), anti-MAPK1/2 (ERK1/2) antibody (1:10,000; Millipore-Sigma), anti-β-arrestin1 antibody (A1CT; 1:3000) or anti-β-arrestin2 antibody (A1CT; 1:3000, Lefkowitz lab, Duke University). Protein bands on the membrane were detected with SuperSignal West Pico enhanced chemiluminescent substrate (Thermo Fisher) and captured using a ChemiDoc-XRS charge-coupled device camera system (Bio-Rad Laboratories). Bands were quantified by densitometry using Image Lab (Bio-Rad, Hercules, Calif.) and GraphPad Prism software was used for data analyses.
For experiments involving siRNA transfection and knockdown βarrs, after stimulation cells were lysed in ice-cold 1% NP-40 lysis buffer [20 mM tris-HCl (pH 7.4), 137 mM NaCl, 20% glycerol, 1% NP-40, 2 mM sodium orthovanadate, 1 mM phenylmethylsulfonyl fluoride, 10 mM sodium fluoride, aprotinin (10 μg/ml), leupeptin (5 μg/ml), and phosphatase inhibitors (Phos-STOP; Roche)], rotated for 45 min, and cleared of insoluble debris by centrifugation at 14,000×g (4° C., 15 min). After which the supernatant was collected, protein concentration determined, and equal amounts of cell lysate were mixed with 2×Laemmli sample buffer. Samples were analyzed afterwards essentially as described above.

[3] = target: βarr2 (Rattus norvegicus, UniProt P29067); experiment: Binding affinity (Kd) by ITC / thermal shift; design: made in house; details: Cmpd-30 by ITC; other three by combination of ITC and thermal shift; read-out: Kd (dissociation constant), βarr2
Chain of βarr2 (P29067 whole entry): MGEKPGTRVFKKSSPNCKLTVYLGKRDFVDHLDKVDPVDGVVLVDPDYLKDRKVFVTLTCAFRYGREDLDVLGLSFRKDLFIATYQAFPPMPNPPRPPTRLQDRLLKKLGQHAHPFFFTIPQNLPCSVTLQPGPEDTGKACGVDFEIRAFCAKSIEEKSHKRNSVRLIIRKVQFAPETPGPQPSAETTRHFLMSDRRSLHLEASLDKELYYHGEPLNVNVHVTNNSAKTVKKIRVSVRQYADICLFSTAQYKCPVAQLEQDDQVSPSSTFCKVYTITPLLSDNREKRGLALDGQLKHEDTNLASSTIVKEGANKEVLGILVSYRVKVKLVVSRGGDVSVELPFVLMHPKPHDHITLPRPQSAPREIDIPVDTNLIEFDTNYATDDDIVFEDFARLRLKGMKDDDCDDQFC
Experimental: A high-throughput differential scanning fluorimetry-based thermal shift screen was developed to identify potential βarr small-molecule modulators present in the collection of structurally diverse, drug-like small-molecule compound library described above. The screen was performed using the StepOnePlus™ Real-Time PCR System (Applied Biosystems, Foster City, Calif.). Melting temperature changes were monitored with the use of a reporter fluorescent probe, SYPRO Orange (Thermo Fisher Scientific). Proteins were buffered in a 20 mM HEPES pH 7.5, 100 mM NaCl solution. All reactions were set up in a 96-well plate at final volumes of 20 μl. Small-molecule test compounds were plated from DMSO stock solutions into 96 well plates (1 compound/well) at a final compound concentration of 100 μM. The final DMSO concentration per well was 1%. βarr1 or βarr2 final concentration was maintained at 5 μM per well. Vehicle (DMSO), negative, and positive controls were also included in each plate. Negative controls contained SYPRO Orange in buffer by itself (no βarr protein). Three known βarr binders were individually tested under described assay conditions: ‘V2Rpp’, a phosphorylated peptide corresponding to the C-terminus of the vasopressin-2 receptor (V2R); Fab30, an antigen-binding fragment that recognizes V2Rpp bound active βarr conformation; and inositol hexakisphosphate (IP6). […]. […] The temperature was raised with a step of 0.5° C. per 30 second from 25° C. to 99° C. and fluorescence readings were taken at each interval. Melting curves were directly exported from the instrument and were analyzed using Applied Biosystems® Protein Thermal Shift™ Software. Melting temperature (Tm) was calculated by plotting the first derivative of the fluorescence emission as a function of temperature [−dF/dT]. […]
ITC measurements were made using the MicroCal iTC200 system (MicroCal, Malvern, Pa.). […] Data were analyzed using MicroCal Origin software program to obtain association constant (Ka=1/Kd), stoichiometry (N), and thermodynamic parameters such as enthalpy (ΔH) and entropy (ΔS) of binding.

SMILES	maximal agonist induced receptor-βarr internalization response [1]	βarr1/2-dependent ERK activation through β2-adrenergic receptor [2]	Kd [3]	EC50 ([2]; Homo sapiens, HEK293, βarr-dependent but receptor-independent)	basal phosphorylation of ERK1/2 ([2]; compound alone, absent of agonist)	time of peak ERK activation signal ([2]; compound alone, decline observed at 30 minutes)	compound-induced ERK1/2 phosphorylation after knockdown of βarr1/2 ([2]; βarr1/2 siRNA vs control siRNA)
C=C1C(=O)C23[C@H](O)C1CC[C@H]2[C@]12COC3(O)[C@@H](O)[C@@H]1C(C)(C)CC[C@@H]2O [Cmpd-5, (1R,2S,10S,11R,15S,18R)-9,10,15,18-tetrahydroxy-12,12-dimethyl-6-methylidene-17-oxapentacyclo[7.6.2.15,8.01,11.02,8]octadecan-7-one]	significantly diminished	attenuate	261 nM	–	–	–	–
CN(C)c1n/c(=N/Cc2ccco2)ss1 [Cmpd-30, 5-(furan-2-ylmethylimino)-N,N-dimethyl-1,2,4-dithiazol-3-amine;hydrobromide]	significantly diminished	–	2 nM	500 nM	increased	15 to 20 min	markedly impaired
C=C1C(=O)OC2CC3(C)OC3CC/C(C)=C\C(OC(C)=O)C12 (stereo not drawn) [Cmpd-64, [(8Z)-3,8-dimethyl-12-methylidene-13-oxo-4,14-dioxatricyclo[9.3.0.03,5]tetradec-8-en-10-yl] acetate]	significantly diminished	attenuate	104 nM	–	–	–	–
